We go through 25 compounds from US7342026B2, “Substituted quinolines for the treatment of protozoa and retrovirus co-infections” (priority 2001, dated 2008).

In data set [1] the test system is macrophages. Briefly: Cytotoxicity on macrophages. Type of data set: cell-based, BALB/c mice. As to conditions: macrophages from BALB/c mice. The protocol: The macrophages, which will be used as host cells for the leishmania, are obtained after multiplication and differentiation of medullary precursors from BALB/c mice. This culture is prepared in the presence of supernatant from a conditioned line of fibroblasts L-929, and source of “Macrophage Colony Stimulating Factor”. After culturing for 5 days on a hydrophobic support, the adherent macrophages are recovered and then distributed in flat-bottomed 96-well plates for cell culture, in a proportion of 4×10^4 macrophages per well. The macrophages are then infected with purified amastigotes (4 parasites per macrophage) and incubated at 34° C. for 24 hours to allow development of parasitophorous vacuoles and multiplication of parasites. Under these conditions, more than 95% of the macrophages are infected.
The solutions of the substituted quinolines to be tested are prepared in DMSO before being added, at various concentrations, to the infected macrophage cultures.
The results obtained with the substituted quinolines, assigned Nos. 1, 2, 4, 6 to 11, 13 to 20, 23 to 34, 37 and 38 in Table I, are given in Table II below as regards their activity on the amastigotes of Leishmania amazonensis, of Leishmania donovani and of Leishmania infantum, and also their cytotoxicity with respect to the macrophages.

The subject of data set [2] is amastigotes of Leishmania amazonensis. Briefly: Amastigotes of Leishmania amazonensis in infected macrophages (leishmanicidal activity). Type of data set: cell-based. As to conditions: for L. amazonensis IC100: 100% inhibitory concentration, intracellular amastigotes in BALB/c macrophages, 30 hours after addition.
Description: The strain of Leishmania amazonensis is maintained by successive passages in “nude” mice (nu/nu). The amastigotes are isolated from the lesions developed on the footpads, and purified according to the method described by Antoine et al. (Parasitology, 1989, 99: 1).
The leishmanicidal activity of the quinolines is determined 30 hours after addition of the solutions of substituted quinolines. It is based on a more or less large, or even complete, decrease, firstly, in the size of the parasitophorous vacuoles and, secondly, in the number of live intracellular amastigotes.
The test system of data set [3] is amastigotes of Trypanosoma cruzi (Tulahuen strain). Briefly: Amastigotes of Trypanosoma cruzi in peritoneal macrophages. The note with it: for IC50: read-out: T. cruzi (amastigotes) IC50. In kind it is cell-based.
Description: c) Tests on Amastigotes of Trypanosoma cruzi
Peritoneal macrophages from Balb/c mice are collected, washed in Dulbecco PBS and then distributed in 96-well plates in a proportion of 3×10^4 cells per 100 μl and per well, in RPMI-1640 medium supplemented with 10% FCS and antibiotics.
After 24 hours at 37° C., 10^5 trypomastigotes are added with serial 2-fold dilutions of the various substituted quinolines. The cultures are then incubated at 37° C. for 4 days in a humid atmosphere (5% CO2-95% air). After fixing, and then staining with Giemsa, the antiparasitic activity is assessed by counting the extracellular trypomastigotes and the intracellular amastigotes.
The subject of data set [4] is circulating forms of Trypanosoma brucei (S427 strain). Briefly: microbe, parasite or virus in culture. Type of data set: cell-based. As to conditions: for IC50: read-out: T. brucei IC50.
Description: d) Tests on the Circulating Forms of Trypanosoma brucei
The circulating forms of Trypanosoma brucei are cultured in MEM medium (minimum essential medium; GIBCO-BRL, No. 072-1100) to which Earle's salts have been added and supplemented with 1 mg/ml of glucose, 2.2 mg/ml of NaHCO3, 10 mM of Hepes, 2 mM of sodium pyruvate, 0.2 mM of 2-mercaptoethanol, 0.1 mM of hypoxanthine and 15% of inactivated horse serum.
The cultures are maintained at 37° C. in 24-well plates in a humid atmosphere (5% CO2-95% air) and the passages are carried out every 2 or 3 days at a density of 10^3 to 10^5 trypomastigotes per ml. The activity of the substituted quinolines is tested in triplicate in 96-well plates in which 10^3 parasites originating from an exponential growth phase are distributed per well, in the presence of the various solutions of substituted quinolines in a final volume of 200 μl. After culturing for 48 hours, the trypanocidal activity is assessed by counting, with a Neubauer cell, the number of live parasites per well.
In data set [5] the test system is amastigotes of Leishmania infantum (MHOM/MA(BE)67). Briefly: Amastigotes of Leishmania infantum (MHOM/MA(BE)67) in peritoneal macrophages. Type of data set: cell-based. The note with it: for IC50: Leishmania infantum, Peritoneal macrophage, in Mus musculus, 48 h, read-out: L. infantum (MHOM/MA (BE) 67) IC50.
The test system of data set [6] is amastigotes of Leishmania donovani (MHOM/ET/67/L82). Briefly: microbe, parasite or virus in culture. The note with it: Leishmania donovani, Peritoneal macrophage, in Mus musculus, 48 h, read-out: L. donovani IC50. Type of data set: cell-based. From the text:
(§1) b) Tests on Amastigotes of Leishmania donovani and Leishmania infantum
(§2) The Leishmania donovani and Leishmania infantum strains are maintained by successive passages in golden hamsters. The amastigotes are isolated from the spleens of the infected hamsters and brought into contact with the purified macrophages.
(§3) Twenty-four hours after intraperitoneal injection of Balb/c mice with a 2% starch solution, the peritoneal macrophages of these mice are collected, washed in Dulbecco PBS and then distributed in Lab-tek® culture chambers, in a proportion of 4×10^4 cells per 100 μl per well in RPMI-1640 medium supplemented with 10% of FCS and antibiotics. After 24 hours at 37° C. in a humid atmosphere (5% CO2), the macrophages are brought into contact with purified amastigotes (3 parasites per macrophage) in a final volume of 200 μl for 4 hours. The medium is then removed in order to eliminate the extracellular parasites, and replaced with 100 μl of fresh medium.
(§4) Twenty-four hours after the beginning of infection, the solutions of substituted quinolines prepared as described in paragraph a) above are added and the leishmanicidal activity is determined after 48 hours by counting the number of parasites still alive in the fixed and Giemsa-stained cells.

Data set [7] has as its system amastigotes of Leishmania infantum (IPZ229/1/89). Briefly: microbe, parasite or virus in culture. As to conditions: Leishmania infantum, Peritoneal macrophage, in Mus musculus, 48 h, read-out: L. infantum (IPZ229/1/89) IC50. In kind it is cell-based.
Source text: as §1, §2, §3, §4

For data set [8], the system named is Leishmania amazonensis (IFLA/BR/67/PH8). The note with it: 15 days, quinolines oral 25 mg/kg/day, Glucantime subcutaneous 100 mg/kg (28 mg Sbv/kg); for Mean of the number of parasites in the lesion per gram / Weight of lesions (mean ± standard deviation): n=8; for % reduction in the number of parasites in the lesion: versus untreated controls.
Source text: a) Tests Carried Out on Laboratory Animals Infected with Cutaneous Leishmaniasis (Leishmania amazonensis):
The experimental animals are male or female approximately 6- to 8-week-old Balb/c mice weighing 18-24 g, subsequently reared for reproduction in the animal house of the Instituto de Investigaciones en Ciencias de la Salud (IICS), Asuncion, Paraguay. Golden hamsters (Mesocricetus auratus) are used to maintain these strains and as reservoirs for L. amazonensis parasites.
The Balb/c mice are infected with Leishmania amazonensis parasites, at the amastigote stage of the reference strain IFLA/BR/67/PH8, subcutaneously in the ventral pad of the right rear foot, the left foot remaining as a control. The amount of amastigotes inoculated is 2×10^6 amastigotes in 50 μl of phosphate buffer saline (PBS) for L. amazonensis.
The treatments begin once the infection is well established, mainly in general 5 to 6 weeks after inoculation of the L. amazonensis amastigotes. The reference medicinal product chosen is Glucantime® or meglumine antimoniate from Aventis (France).
The untreated control mice are given 50 μl of a solution of Tween 80 with PBS.
Measurement of the lesion: the diameters of the lesions on the infected foot and on the control foot are measured using a micrometer with 1/10 mm graduations, once a week for the duration of the experiment. The first measurements begin 48 hours after inoculation of the parasites. Calculating the difference in the two measurements gives the thickness of the lesion.
The 5 ml of puree obtained are centrifuged twice. The layer containing the amastigotes is subjected to counting of the number of parasites using a Neubauer cell. Five counts are performed on each amastigote layer. The number of amastigote forms is determined using the Stauber formula which takes into account the weight of the lesion: A/N×W×coefficient of the Neubauer cell • A=number of amastigotes, N=number of nuclei W=weight of the lesion
The results are expressed by the calculation of the arithmetic mean of the diameters of the lesions measured once a week and, at the end of the protocol, after sacrifice of the mice, of the weights of the lesions and of the number of amastigotes. A Student's test (t-test) is used for the statistical analysis of all the data. The comparison is made between “control” groups with a “treatment” group per pair. A value of P<0.05 is considered to be statistically significant.
For data set [9], the system named is Leishmania infantum (MHOM/FR/91/LEM2259V). Briefly: Balb/c mice infected with visceral leishmaniasis (Leishmania infantum). In kind it is in vivo. As to conditions: 10 days, quinolines oral 25 mg/kg/day, Glucantime subcutaneous 100 mg/kg/day; for Number of parasites in the liver per gram / Number of parasites in the spleen per gram: n=8; for % reduction in the number of parasites in the liver / % reduction in the number of parasites in the spleen: versus without treatment. As to the method:
b) Tests Carried on Laboratory Animals Infected with Visceral Leishmaniasis (Leishmania infantum): 1/Laboratory Animals and Parasites
The Balb/c mice were infected with Leishmania infantum parasites at the promastigote stage (reference: MHOM/FR/91/LEM2259V), a strain isolated from a patient carrying AIDS. This strain is maintained in Schneider's drosophila culture medium (Gibco, USA) supplemented with 20% of fetal calf serum. The infectious promastigotes are cultured for 7 days and then counted. Each mouse is then infected intravenously with 0.2 ml of culture medium containing 10^7 promastigotes.
Counting of amastigotes forms in the liver and spleen.
After the treatments have been stopped and the animals sacrificed, the viscera, liver and spleen are weighed and collected in a Petri dish. Each organ is mounted several times on a degreased glass slide which, fixed and stained by the May-Grünwald-Giemsa technique, makes it possible to determine the number of amastigote forms per 500 nucleated cells.
The results are expressed in Table VI.

Setting [10] is: Balb/c peritoneal macrophages, 4 days.
Setting [11] is: circulating forms, culturing for 48 hours.
The mark [12] stands for this setting: Trypanosoma cruzi, TULAHUEN, Peritoneal macrophage, in Mus musculus, 96 h.

≈ marks a conversion by molar mass, not a printed value. Read-outs that look alike come from different tables or passages of the source. Some results are limits rather than exact numbers.

For the compound `FC(Br)=Cc1ccc2ccccc2n1` [Quinoline 31], the Cytotoxicity on macrophages in data set [1] amounted to 25 µg/mL. The “L. amazonensis IC100” value in data set [2] stood at 25 µg/mL.
As for `Cc1ccc2nc(C=O)ccc2c1` [Quinoline 5], the IC50 in data set [3] (setting [10]) is over 32 µM.
`c1ccc2nc(CCc3ccc4c(c3)OCO4)ccc2c1` [Quinoline 34] returned a Cytotoxicity on macrophages in data set [1] of 25 µg/mL. The results for the IC50 in [4] (setting [11]) and in data set [3] (setting [10]) were 13 µM and 15 µM, respectively. Further, the “L. amazonensis IC100” value in [2] came to 50 µg/mL.
In the case of `BrC(Br)=Cc1ccc2ccccc2n1` [Quinoline 36], the IC50 amounted to 4 µM in data set [4] (setting [11]) and 21 µM in data set [3] (setting [10]).
In the case of `C=Cc1ccc2ccccc2n1` [Quinoline 2, (2-quinolyl)ethylene], the Cytotoxicity on macrophages in data set [1] was 6.25 µg/mL. Moreover, the IC50 is 13 µM in [4] (Trypanosoma brucei, 48 h); over 32000 nM in data set [5]; 12 µM in data set [3] (setting [12]); 1.2 to 2.8 µg/mL (≈ 7.73 to 18 µM) in data set [6]; 1.3 µg/mL (≈ 8.38 µM) in data set [7]. In addition, the “L. amazonensis IC100” value in data set [2] worked out at 3.12 µg/mL.
In the case of `CCCCCCCCC#Cc1ccc2ccccc2n1` [Quinoline 32], the Cytotoxicity on macrophages in data set [1] is 12.5 µg/mL. Also, the “L. amazonensis IC100” value in data set [2] amounted to 12.5 µg/mL.
In data set [1], `COC(=O)/C=C/C=C/c1ccc2ccccc2n1` [Quinoline 30] came in with a Cytotoxicity on macrophages of 25 µg/mL. The IC50 in data set [3] (setting [10]) amounted to 26 µM. The “L. amazonensis IC100” value in [2] stood at 12.5 µg/mL.
For `CCCCC/C=C/c1ccc2ccccc2n1` [Quinoline 25], the Cytotoxicity on macrophages in data set [1] worked out at 25 µg/mL. The IC50 in [4] (setting [11]) is 4 µM; in data set [3] (setting [10]), 11 µM. Further, in data set [4] (comment on Table III), the “activity on Trypanosoma brucei (in words)” value is “advantageous activity”. Further, the “activity on the MHOM/MA(BE)67 strain of Leishmania infantum (in words)” value in data set [5] (comment on Table II) is “less active”. For the same compound, the “activity on Trypanosoma cruzi (in words)” value in data set [3] (comment on Table III) is reported as “advantageous activity”. For the same compound, in data set [2], the “L. amazonensis IC100” value is 12.5 µg/mL. In data set [2] (comment on Table II), the “activity on Leishmania amazonensis (in words)” value is “advantageous activity”.
The compound `Br/C=C/c1ccc2ccccc2n1` [Quinoline 29, E-1-bromo-2-(2-quinolyl)-ethene] yielded a Cytotoxicity on macrophages in [1] of 3.12 µg/mL. Moreover, the IC50 was 1 µM in data set [4] (Trypanosoma brucei, 48 h); 2000 nM in data set [5]; under 0.5 µM in data set [3] (setting [12]). For the same compound, the “L. amazonensis IC100” value in [2] came out at 0.7812 µg/mL.
As for `Cl/C=C/C#Cc1ccc2ccccc2n1` [Quinoline 24], the “L. amazonensis IC100” value in [2] was in the range of 10 to 25 µg/mL.
Regarding `OC/C=C/c1ccc2ccccc2n1` [Quinoline 10], in data set [1] (listed as 10), the Cytotoxicity on macrophages amounted to 6.25 µg/mL. The results for the IC50 in data set [4] (setting [11]) and in [3] (setting [10]) were over 32 µM and 4 µM, respectively. Besides, the “L. amazonensis IC100” value in data set [2] (listed as 10) stood at 1.56 µg/mL.
For `OC/C=C/c1ccc2ccccc2n1` [Example 4, E-3-(2-quinolyl)prop-2-en-1-ol], the Cytotoxicity on macrophages in data set [1] was found to be 25 µg/mL. The “L. amazonensis IC100” value in data set [2] worked out at 25 µg/mL.
As for `C/C=C/c1ccc2cccc(O)c2n1` [Quinoline 11], the Cytotoxicity on macrophages in data set [1] is 50 µg/mL. The results for the IC50 in [4] (setting [11]) and in data set [3] (setting [10]) were over 32 µM and 19 µM, respectively. For the same compound, the “L. amazonensis IC100” value in data set [2] is 50 µg/mL.
`CC/C=C/c1ccc2ccccc2n1` [Quinoline 6, E-1-(2-quinolyl)butene] came in with a Cytotoxicity on macrophages in data set [1] of 25 µg/mL. In [4] (setting [11]), the IC50 amounted to 17 µM. In data set [8], the “Mean of the number of parasites in the lesion per gram” value is listed as 6.9 × 10^6 per gram, the “Weight of lesions (mean ± standard deviation)” value is recorded as 0.101 ± 0.100 g and the “% reduction in the number of parasites in the lesion” value is recorded as −73%. For the same compound, the IC50 in data set [3] (setting [10]) is over 32 µM. In addition, the “L. amazonensis IC100” value in [2] worked out at 6.25 µg/mL.
Take `C[Si](C)(C)C#Cc1ccc2ccccc2n1` [Example 1, 2-(2-quinolyl)trimethylsilylacetylene]: in data set [1], the Cytotoxicity on macrophages was 6.25 µg/mL. The “L. amazonensis IC100” value in data set [2] amounted to 0.7812 µg/mL.
Regarding `CC(O)Cc1ccc2ccccc2n1` (stereo not shown) [Quinoline 15], the values for the IC50 in data set [4] (setting [11]) and in [3] (setting [10]) were 16 µM and over 32 µM, respectively.
Take `C#Cc1ccc2ccccc2n1` [Quinoline 1, 1-(2-quinolyl)acetylene]: in [9], the “Number of parasites in the liver per gram” value was 1.8 × 10^7 c per gram, the “Number of parasites in the spleen per gram” value was 2.2 × 10^6 b per gram, the “% reduction in the number of parasites in the liver” value is reported as −60.0% and the “% reduction in the number of parasites in the spleen” value was −47.6%.
Turning to `CC(=O)Cc1ccc2ccccc2n1` [Quinoline 13], the Cytotoxicity on macrophages in [1] amounted to 25 µg/mL. Besides, the IC50 in data set [4] (setting [11]) was 10 µM; in data set [3] (setting [10]), over 32 µM. Also, the “L. amazonensis IC100” value in [2] came out at 25 µg/mL.
With `CCC(O)c1ccc2ccccc2n1` (stereo not shown) [Quinoline 17], the results for the IC50 in data set [4] (setting [11]) and in [3] (setting [10]) were 3 µM and over 32 µM, respectively.
As for `COC(=O)/C=C/c1ccc2cc(C)ccc2n1` [Quinoline 27], the IC50 in data set [3] (setting [10]) came to 25 µM. Also, in [2], the “L. amazonensis IC100” value amounted to 50 µg/mL.
Consider `C(=C\c1ccc2ccccc2n1)/c1ccc2ccccc2n1` [Quinoline 35], for which the IC50 in [4] (setting [11]) was 24 µM; in [3] (setting [10]), over 32 µM.
Regarding “meglumine antimoniate [Glucantime, reference compound]”, in [8], the “Mean of the number of parasites in the lesion per gram” value is recorded as 7.2 × 10^5 per gram, the “Weight of lesions (mean ± standard deviation)” value was determined as 0.012 ± 0.010 g and the “% reduction in the number of parasites in the lesion” value was −97%. Besides, in data set [9], the “Number of parasites in the liver per gram” value is recorded as 1.6 × 10^7 a per gram, the “Number of parasites in the spleen per gram” value was 4.4 × 10^6 per gram, the “% reduction in the number of parasites in the liver” value is on record as −65.3% and the “% reduction in the number of parasites in the spleen” value was “+6.0%”.
As to `O=C(O)/C=C/c1ccc2ccccc2n1` [Quinoline 19], the Cytotoxicity on macrophages in data set [1] was 12.5 µg/mL. In addition, the “L. amazonensis IC100” value in data set [2] was 12.5 µg/mL.
With `CC(O)Cc1ccc2cccc(O)c2n1` (stereo not shown) [Quinoline 22], the IC50 in data set [4] (setting [11]) and in [3] (setting [10]) was 16 µM each time.
In the case of `BrC#Cc1ccc2ccccc2n1` [Quinoline 28], the Cytotoxicity on macrophages in [1] was 12.5 µg/mL. The IC50 is 5 µM in data set [4] (setting [11]) and over 32 µM in data set [3] (setting [10]). Moreover, the “L. amazonensis IC100” value in data set [2] turned out to be 12.5 µg/mL.
